ChEMBL document CHEMBL1138518 (J Med Chem, 2009)

What was measured:
[1] = system: SK-BR-3; experiment: Cytotoxicity against human SKBR3 cells after 72 hrs by celltiter-glo assay; type: functional, cell-based
[2] = target: Heat shock protein HSP 90-beta (Homo sapiens, UniProt P08238); experiment: Binding affinity to human recombinant HSP90
[3] = system: MCF7; experiment: Cytotoxicity against human MCF7 cells after 72 hrs by celltiter-glo assay; type: functional, cell-based; conditions: MCF7, 72 h
[4] = system: SK-OV-3; experiment: Cytotoxicity against human SKOV3 cells after 72 hrs by celltiter-glo assay; type: functional, cell-based; conditions: SK-OV-3, 72 h
[5] = system: A549; experiment: Cytotoxicity against human A549 cells after 72 hrs by celltiter-glo assay; type: functional, cell-based; conditions: A549, 72 h
[6] = system: CCRF-CEM; experiment: Cytotoxicity against human CCRF-CEM cells after 72 hrs by celltiter-96 aqueous one solution assay; type: functional, cell-based
[7] = system: CCRF-CEM; experiment: Cytotoxicity against human paclitaxel-resistant CCRF-CEM cells after 72 hrs by celltiter-96 aqueous one solution assay; type: functional, cell-based

Sequence of Heat shock protein HSP 90-beta (P08238 whole entry): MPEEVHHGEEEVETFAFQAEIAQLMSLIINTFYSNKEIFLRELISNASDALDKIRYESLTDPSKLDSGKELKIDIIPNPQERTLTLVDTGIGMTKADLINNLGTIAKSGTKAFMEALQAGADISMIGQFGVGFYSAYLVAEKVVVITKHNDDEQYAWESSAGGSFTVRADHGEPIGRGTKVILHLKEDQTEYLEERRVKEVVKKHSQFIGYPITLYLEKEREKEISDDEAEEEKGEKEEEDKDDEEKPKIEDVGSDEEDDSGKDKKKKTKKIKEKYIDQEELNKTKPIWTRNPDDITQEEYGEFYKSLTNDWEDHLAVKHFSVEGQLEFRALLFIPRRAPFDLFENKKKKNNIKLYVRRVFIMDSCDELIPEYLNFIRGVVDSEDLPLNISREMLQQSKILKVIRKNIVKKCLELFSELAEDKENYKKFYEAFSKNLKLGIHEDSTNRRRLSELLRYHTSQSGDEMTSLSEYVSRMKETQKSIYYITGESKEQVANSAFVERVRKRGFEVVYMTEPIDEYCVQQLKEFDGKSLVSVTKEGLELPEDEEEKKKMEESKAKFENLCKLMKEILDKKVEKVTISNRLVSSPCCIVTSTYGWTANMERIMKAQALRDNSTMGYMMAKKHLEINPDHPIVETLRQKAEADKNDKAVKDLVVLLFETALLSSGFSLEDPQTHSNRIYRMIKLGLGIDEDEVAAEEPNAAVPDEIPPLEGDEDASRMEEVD

SMILES	IC50 ([1]; Homo sapiens, SK-BR-3, 72 h)	Kd [2]	also measured
CO[C@H]1C[C@H](C)CC2=C(NCCF)C(=O)C=C(NC(=O)/C(C)=C/C=C\[C@H](OC)[C@@H](OC(N)=O)/C(C)=C/[C@H](C)/C1=N\O)C2=O	> 1000 nM	> 25000 nM	
C=CCO[C@H]1[C@@H](OC)C[C@H](C)CC2=C(N3CCC3)C(=O)C=C(NC(=O)/C(C)=C/C=C\[C@H](OC)[C@@H](OC(N)=O)/C(C)=C/[C@@H]1C)C2=O	390 nM	2900 nM	
CO[C@H]1/C=C\C=C(/C)C(=O)NC2=CC(=O)C(NCCN(C)C)=C(C[C@@H](C)C[C@H](OC)[C@H](OC(=O)NN)[C@@H](C)/C=C(\C)[C@@H]1OC(N)=O)C2=O	> 1000 nM		IC50 [2]: 5 nM
CO[C@H]1/C=C\C=C(/C)C(=O)NC2=CC(=O)C(NCCN3CCC3)=C(C[C@@H](C)C[C@H](OC)[C@H](O)[C@@H](C)/C=C(\C)[C@@H]1OC(N)=O)C2=O (stereo in doubt)	26 nM	400 nM	
COC1=C2C[C@@H](C)C[C@H](OC)[C@H](O)[C@@H](C)/C=C(\C)[C@H](OC(N)=O)[C@@H](OC)/C=C\C=C(/C)C(=O)NC(=CC1=O)C2=O [GELDANAMYCIN]			IC50 ([1]; sk-br-3): 41 nM
CO[C@H]1C[C@H](C)CC2=C(NCCN(C)C)C(=O)C=C(NC(=O)/C(C)=C/C=C\[C@H](OC)[C@@H](OC(N)=O)/C(C)=C/[C@H](C)/C1=N\OCc1ccccc1)C2=O (stereo in doubt)	480 nM	> 100000 nM	
CO[C@H]1C[C@H](C)CC2=C(N3CCC3)C(=O)C=C(NC(=O)/C(C)=C/C=C\[C@H](OC)[C@@H](OC(N)=O)/C(C)=C/[C@H](C)C1=O)C2=O (stereo in doubt)	260 nM	6400 nM	
CO[C@H]1C[C@H](C)CC2=C(NCCN(C)C)C(=O)C=C(NC(=O)/C(C)=C/C=C\[C@H](OC)[C@@H](OC(N)=O)/C(C)=C/[C@H](C)/C1=N\O)C2=O (stereo in doubt)	95 nM	> 10000 nM	
CO[C@H]1[C@@H](OC)C[C@H](C)CC2=C(N)C(=O)C=C(NC(=O)/C(C)=C/C=C\[C@H](OC)[C@@H](OC(N)=O)/C(C)=C/[C@@H]1C)C2=O	84 nM	320 nM	IC50 [3]: 350 nM; IC50 [4]: 200 nM; IC50 [5]: 37 nM; IC50 [6]: 250 nM; IC50 [7]: 850 nM
CO[C@H]1/C=C\C=C(/C)C(=O)NC2=CC(=O)C(NCCN3CCCC3)=C(C[C@@H](C)C[C@H](OC)[C@H](O)[C@@H](C)/C=C(\C)[C@@H]1OC(N)=O)C2=O (stereo in doubt)	70 nM	400 nM	
CO[C@H]1C[C@H](C)CC2=C(NCCN(C)C)C(=O)C=C(NC(=O)/C(C)=C/C=C\[C@H](OC)[C@@H](OC(N)=O)/C(C)=C/[C@H](C)C1=O)C2=O (stereo in doubt)	100 nM	1800 nM	
C=CCNC1=C2C[C@@H](C)C[C@H](OC)[C@H](OC)[C@@H](C)/C=C(\C)[C@H](OC(N)=O)[C@@H](OC)/C=C\C=C(/C)C(=O)NC(=CC1=O)C2=O (stereo in doubt)	280 nM	2800 nM	IC50 [3]: 760 nM; IC50 [4]: 1300 nM; IC50 [5]: 360 nM; IC50 [6]: 2500 nM; IC50 [7]: 3500 nM
CO[C@H]1/C=C\C=C(/C)C(=O)NC2=CC(=O)C(NCCN(C)C)=C(C[C@@H](C)C[C@H](OC)[C@H](O)[C@@H](C)/C=C(\C)[C@@H]1OC(N)=O)C2=O (stereo in doubt) [ALVESPIMYCIN]	24 nM		IC50 [3]: 230 nM; IC50 [4]: 220 nM; IC50 [5]: 68 nM; IC50 [6]: 540 nM; IC50 [7]: 2500 nM
CO[C@H]1C[C@H](C)CC2=C(NCCN(C)C)C(=O)C=C(NC(=O)/C(C)=C/C=C\[C@H](OC)[C@@H](OC(N)=O)/C(C)=C/[C@H](C)/C1=N\OCC(=O)O)C2=O (stereo in doubt)	2700 nM	> 25000 nM	
CO[C@H]1/C=C\C=C(/C)C(=O)NC2=CC(=O)C(NCCF)=C(C[C@@H](C)C[C@H](OC)[C@H](O)[C@@H](C)/C=C(\C)[C@@H]1OC(N)=O)C2=O (stereo in doubt)	17 nM	800 nM	
COC1=C2C[C@@H](C)C[C@H](OC)[C@H](OC)[C@@H](C)/C=C(\C)[C@H](OC(N)=O)[C@@H](OC)/C=C\C=C(/C)C(=O)NC(=CC1=O)C2=O	9.1 nM	490 nM	

SMILES	IC50 ([1]; Homo sapiens, SK-BR-3, 72 h)	Kd [2]	also measured
CO[C@H]1/C=C\C=C(/C)C(=O)NC2=CC(=O)C(N)=C(C[C@@H](C)C[C@H](OC)[C@H](O)[C@@H](C)/C=C(\C)[C@@H]1OC(N)=O)C2=O (stereo in doubt)	33 nM	100 nM	
CO[C@H]1/C=C\C=C(/C)C(=O)NC2=CC(=O)C(NCCc3c[nH]cn3)=C(C[C@@H](C)C[C@H](OC)[C@H](O)[C@@H](C)/C=C(\C)[C@@H]1OC(N)=O)C2=O (stereo in doubt)	98 nM	800 nM	
CO[C@H]1[C@@H](OC)C[C@H](C)CC2=C(NCCc3c[nH]cn3)C(=O)C=C(NC(=O)/C(C)=C/C=C\[C@H](OC)[C@@H](OC(N)=O)/C(C)=C/[C@@H]1C)C2=O (stereo in doubt)	60 nM	2000 nM	IC50 [3]: 160 nM; IC50 [4]: 320 nM; IC50 [5]: 420 nM; IC50 [6]: 510 nM; IC50 [7]: 3000 nM
CO[C@H]1C[C@H](C)CC2=C(N3CCC3)C(=O)C=C(NC(=O)/C(C)=C/C=C\[C@H](OC)[C@@H](OC(N)=O)/C(C)=C/[C@H](C)/C1=N\O)C2=O	310 nM	> 25000 nM	
CO[C@H]1/C=C\C=C(/C)C(=O)NC2=CC(=O)C(N3CCC3)=C(C[C@@H](C)C[C@H](OC)[C@H](O)[C@@H](C)/C=C(\C)[C@@H]1OC(N)=O)C2=O (stereo in doubt)	24 nM	1400 nM	
C=CCNC1=C2C[C@@H](C)C[C@H](OC)C(=O)[C@@H](C)/C=C(\C)[C@H](OC(N)=O)[C@@H](OC)/C=C\C=C(/C)C(=O)NC(=CC1=O)C2=O (stereo in doubt)	450 nM	3300 nM	
CO[C@H]1[C@@H](OC)C[C@H](C)CC2=C(NCCN3CCCC3)C(=O)C=C(NC(=O)/C(C)=C/C=C\[C@H](OC)[C@@H](OC(N)=O)/C(C)=C/[C@@H]1C)C2=O (stereo in doubt)	160 nM	1000 nM	IC50 [3]: 76 nM; IC50 [4]: 69 nM; IC50 [5]: 62 nM; IC50 [6]: 160 nM; IC50 [7]: 520 nM
CO/N=C1/[C@@H](OC)C[C@H](C)CC2=C(NCCN(C)C)C(=O)C=C(NC(=O)/C(C)=C/C=C\[C@H](OC)[C@@H](OC(N)=O)/C(C)=C/[C@@H]1C)C2=O (stereo in doubt)	550 nM	> 100000 nM	
CO[C@H]1[C@@H](OC)C[C@H](C)CC2=C(NCCN3CCC3)C(=O)C=C(NC(=O)/C(C)=C/C=C\[C@H](OC)[C@@H](OC(N)=O)/C(C)=C/[C@@H]1C)C2=O (stereo in doubt)	130 nM	1000 nM	IC50 [3]: 51 nM; IC50 [4]: 65 nM; IC50 [5]: 26 nM; IC50 [6]: 85 nM; IC50 [7]: 510 nM
CO[C@H]1[C@@H](OC)C[C@H](C)CC2=C(N3CCC3)C(=O)C=C(NC(=O)/C(C)=C/C=C\[C@H](OC)[C@@H](OC(N)=O)/C(C)=C/[C@@H]1C)C2=O (stereo in doubt)	24 nM	4000 nM	IC50 [3]: 63 nM; IC50 [4]: 110 nM; IC50 [5]: 29 nM; IC50 [6]: 420 nM; IC50 [7]: 2500 nM
CO[C@H]1C[C@H](C)CC2=C(NCCN(C)C)C(=O)C=C(NC(=O)/C(C)=C/C=C\[C@H](OC)[C@@H](OC(N)=O)/C(C)=C/[C@H](C)/C1=N\OCCN(C)C)C2=O (stereo in doubt)	2500 nM	> 100000 nM	
C=CCNC1=C2C[C@@H](C)C[C@H](OC)[C@H](O)[C@@H](C)/C=C(\C)[C@H](OC(N)=O)[C@@H](OC)/C=C\C=C(/C)C(=O)NC(=CC1=O)C2=O [TANESPIMYCIN]	33 nM		
C=CCNC1=C2C[C@@H](C)C[C@H](OC)/C(=N/O)[C@@H](C)/C=C(\C)[C@H](OC(N)=O)[C@@H](OC)/C=C\C=C(/C)C(=O)NC(=CC1=O)C2=O	350 nM	> 10000 nM	
CO[C@H]1C[C@H](C)CC2=C(NCCF)C(=O)C=C(NC(=O)/C(C)=C/C=C\[C@H](OC)[C@@H](OC(N)=O)/C(C)=C/[C@H](C)C1=O)C2=O (stereo in doubt)	170 nM	2600 nM	
C=CCO/N=C1/[C@@H](OC)C[C@H](C)CC2=C(NCCN(C)C)C(=O)C=C(NC(=O)/C(C)=C/C=C\[C@H](OC)[C@@H](OC(N)=O)/C(C)=C/[C@@H]1C)C2=O (stereo in doubt)	400 nM	> 100000 nM	
CO[C@H]1/C=C\C=C(/C)C(=O)NC2=CC(=O)C(NCCF)=C(C[C@@H](C)C[C@H](OC)[C@H](OC(=O)CN)[C@@H](C)/C=C(\C)[C@@H]1OC(N)=O)C2=O (stereo in doubt)	110 nM	> 25000 nM	
